Data on 7 compounds can be found in US8952010B2, “Amino group-containing pyrrolidinone derivative” (Daiichi Sankyo Company, Limited, priority 2011, dated 2015).

Values after ≈ are worked out from the molar mass of the structure shown. A value given as a limit tells only on which side of the number the result lay.

The term MIC denotes the least concentration at which growth counts as inhibited. Lower therefore signals greater potency.

The experiment deals with MRSA DB00026. The experiment can be described thus: Measurement of antibacterial activity (MIC), standard methods of the Japanese Society of Chemotherapy. The class given is cell-based, methicillin-resistant Staphylococcus aureus. To be noted: Staphylococcus aureus; bacteria: MRSA DB00026. The method, then:
The measurement method of antibacterial activity of the compound of the present invention was carried out in accordance with the standard methods specified by the Japanese Society of Chemotherapy, and the results are shown in MIC (μg/mL) (Table 1).
As to `COc1ccc2ncc(=O)n(CCCCNC3CC(=O)N(c4ccc5c(c4)NC(=O)CO5)C3)c2c1` (stereo not shown) [Example 1, 6-(4-{[4-(7-Methoxy-2-oxoquinoxalin-1(2H)-yl)butyl]amino}-2-oxopyrrolidin-1-yl)-2H-1,4-benzoxazin-3(4H)-one], the minimum inhibitory concentration (MIC) was 0.12 µg/mL (≈ 0.251 µM).

As to `COc1ccc2ncc(=O)n(CCCNC3CC(=O)N(c4ccc5c(c4)NC(=O)CO5)C3)c2c1` (stereo not shown) [Example 2, 6-(4-{[3-(7-Methoxy-2-oxoquinoxalin-1(2H)-yl)propyl]amino}-2-oxopyrrolidin-1-yl)-2H-1,4-benzoxazin-3(4H)-one], the minimal inhibitory concentration (MIC) is at most 0.06 µg/mL. The value for `COc1ccc2ncc(=O)n(CCCCNC3CC(=O)N(c4ccc5c(c4)NC(=O)CO5)C3)c2n1` (stereo not shown) [Example 15, 6-Methoxy-4-(4-{[5-oxo-1-(3-oxo-3,4-dihydro-2H-1,4-benzoxazin-6-yl)pyrrolidin-3-yl]amino}butyl)pyrido[2,3-b]pyrazin-3(4H)-one] was at most 0.06 µg/mL. `COc1ccc2ncc(=O)n(CCNC[C@H]3CC(=O)N(c4ccc5c(c4)NC(=O)CO5)C3)c2c1` [Example 16, 6-[(4R)-4-({[2-(7-Methoxy-2-oxoquinoxalin-1(2H)-yl)ethyl]amino}methyl)-2-oxopyrrolidin-1-yl]-2H-1,4-benzoxazin-3(4H)-one] came in with an MIC of at most 0.06 µg/mL. Under `COc1ccc2ncc(=O)n(CCNC[C@H]3CC(=O)N(c4ccc5c(n4)NC(=O)CO5)C3)c2c1` [Example 19, 6-[(4R)-4-({[2-(7-Methoxy-2-oxoquinoxalin-1(2H)-yl)ethyl]amino}methyl)-2-oxopyrrolidin-1-yl]-2H-pyrido[3,2-b][1,4]oxazin-3(4H)-one] stands at most 0.06 µg/mL. As for `COc1ccc2ncc(=O)n(CC(O)CNC[C@H]3CC(=O)N(c4ccc5c(n4)NC(=O)CO5)C3)c2n1` (stereo partly drawn) [Example 22, 6-[(4R)-4-({[2-Hydroxy-3-(6-methoxy-3-oxopyrido[2,3-b]pyrazin-4(3H)-yl)propyl]amino}methyl)-2-oxopyrrolidin-1-yl)-2H-pyrido[3,2-b][1,4]oxazin-3(4H)-one], the minimal inhibitory concentration (MIC) stood at 0.25 µg/mL (≈ 0.505 µM). Compound `COc1ccc2ncc(=O)n(CC(F)CNC[C@H]3CC(=O)N(c4ccc5c(c4)NC(=O)CO5)C3)c2n1` (stereo partly shown) [Example 23] yielded an MIC of at most 0.06 µg/mL.
